Laboratory results as given in patent publication US20150258107A1, “METHODS AND COMPOSITIONS FOR TREATING DEPRESSION” (DemeRx, Inc., priority 2014, published 2015).

Key:
[1] = tested on: opioid-dependent participants; assay: Treatment emergent adverse events in opioid-dependent participants; assay type: in vivo, human
Procedure: The efficacy of noribogaine in humans was evaluated in opioid-dependent participants in a randomized, placebo-controlled, double-blind trial. […] See U.S. application Ser. No. 14/214,157, filed Mar. 14, 2014 and Ser. No. 14/346,655, filed Mar. 21, 2014, which are incorporated herein by reference in their entireties.
Three cohorts of nine (9) subjects (6 administered noribogaine and 3 administered placebo in each cohort) were evaluated for tolerability, pharmacokinetics, and efficacy. Cohort 1 received a single dose of 60 mg noribogaine or placebo. Cohort 2 received a single dose of 120 mg noribogaine or placebo. Cohort 3 received a single dose of 180 mg noribogaine or placebo. […] Headaches were frequent in the placebo and 60 mg noribogaine treatment groups, but were attenuated in the 120 mg and 180 mg dose groups.

[2] = Plasma toxicokinetics in dogs, fourteen day repeat dose; assay type: in vivo, dog; conditions: female dogs
Procedure: Noribogaine HCl was administered to groups of 4 male and 4 female dogs by single oral gavage daily for 14 days at doses of 0, 0.5, 1.0 and 5.0 mg/kg/day. An additional group of 4 male and 4 female dogs received either the vehicle control or 5.0 mg/kg/day for 14 days and were held for an additional 28 days after cessation of dosing to assess recovery from any potential drug-induced changes. The study was conducted under GLP guidelines and included comprehensive examinations of clinical signs, body weight, clinical pathology parameters, ophthalmologic examinations, ECG recordings and analyses of plasma for bioanalytical measurement of drug levels at appropriate intervals during the study. At the termination of the dosing phase and at the termination of the recovery phase, all dogs were subjected to a complete post-mortem examination including gross examination of major organs and histologic examination of an extensive list of tissues. Additional sections of brain were obtained from cerebrum, cerebellus, brain stem and spinal cord and examined histologically to evaluate potential effects on brain histopathology. In addition, these sections were examined with immunohistochemical stains for GFAP for evidence of gliosis and Calbindin for a more comprehensive examination of cerebellar Purkinje cells.

In the case of `CC[C@H]1CC2C[C@H]3c4[nH]c5ccc(O)cc5c4CCN(C2)C13` [noribogaine], the “TEAE: Catheter Site Infection” value ([1]; 60 mg (N = 6)) is reported as 0, the “TEAE: Catheter Site Pain” value ([1]; 60 mg (N = 6)) is reported as 0 and the “TEAE: Catheter Site Related Reaction” value ([1]; 60 mg (N = 6)) is reported as 0. For the same compound, the “TEAE: Cellulitis” value ([1]; 60 mg (N = 6)) was 0, the “TEAE: Diarrhoea” value ([1]; 60 mg (N = 6)) was 0 and the “TEAE: Dry Mouth” value ([1]; 60 mg (N = 6)) was 0. For the same compound, the “TEAE: Ear and Labyrinth Disorders” value ([1]; 60 mg (N = 6)) was 0, the “TEAE: Epistaxis” value ([1]; 60 mg (N = 6)) was 0 and the “TEAE: Euphoric Mood” value ([1]; 60 mg (N = 6)) was 0. The “TEAE: General Disorders and Administration Site Conditions” value ([1]; 60 mg (N = 6)) was 0, the “TEAE: Hyperaesthesia” value ([1]; 60 mg (N = 6)) was 0 and the “TEAE: Infections and Infestations” value ([1]; 60 mg (N = 6)) was 0. The “TEAE: Limb Discomfort” value ([1]; 60 mg (N = 6)) was 0, the “TEAE: Malaise” value ([1]; 60 mg (N = 6)) was 0 and the “TEAE: Nausea” value ([1]; 60 mg (N = 6)) was 0. For the same compound, the “TEAE: Oropharyngeal Pain” value ([1]; 60 mg (N = 6)) was 0, the “TEAE: Pseudoparalysis” value ([1]; 60 mg (N = 6)) was 0 and the “TEAE: Respiratory, Thoracic and Mediastinal Disorders” value ([1]; 60 mg (N = 6)) was 0. For the same compound, the “TEAE: Rhinorrhoea” value ([1]; 60 mg (N = 6)) was 0, the “TEAE: Skin Discomfort” value ([1]; 60 mg (N = 6)) was 0 and the “TEAE: Skin Irritation” value ([1]; 60 mg (N = 6)) was 0. The “TEAE: Skin and Subcutaneous Tissue Disorders” value ([1]; 60 mg (N = 6)) was 0, the “TEAE: Somnoience” value ([1]; 60 mg (N = 6)) was 0 and the “TEAE: Tinnitus” value ([1]; 60 mg (N = 6)) was 0. The “TEAE: Tremor” value ([1]; 60 mg (N = 6)) was 0, the “TEAE: Urinary Tract Infection” value ([1]; 60 mg (N = 6)) was 0 and the “TEAE: Vomiting” value ([1]; 60 mg (N = 6)) was 0. The “TEAE: Back Pain” value ([1]; 120 mg (N = 6)) was 0, the “TEAE: Catheter Site Infection” value ([1]; 120 mg (N = 6)) was 0 and the “TEAE: Catheter Site Related Reaction” value ([1]; 120 mg (N = 6)) was 0. The “TEAE: Depressed Mood” value ([1]; 120 mg (N = 6)) was 0, the “TEAE: Dry Eye” value ([1]; 120 mg (N = 6)) was 0 and the “TEAE: Dyspepsia” value ([1]; 120 mg (N = 6)) was 0. For the same compound, the “TEAE: Euphoric Mood” value ([1]; 120 mg (N = 6)) was 0, the “TEAE: Limb Discomfort” value ([1]; 120 mg (N = 6)) was 0 and the “TEAE: Malaise” value ([1]; 120 mg (N = 6)) was 0. The “TEAE: Musculoskeletal and Connective Tissue Disorders” value ([1]; 120 mg (N = 6)) was 0, the “TEAE: Psychiatric Disorders” value ([1]; 120 mg (N = 6)) was 0 and the “TEAE: Somnoience” value ([1]; 120 mg (N = 6)) was 0. For the same compound, the “TEAE: Urinary Tract Infection” value ([1]; 120 mg (N = 6)) was 0, the “TEAE: Catheter Site Infection” value ([1]; 180 mg (N = 6)) was 0 and the “TEAE: Catheter Site Pain” value ([1]; 180 mg (N = 6)) was 0. For the same compound, the “TEAE: Depressed Mood” value ([1]; 180 mg (N = 6)) was 0, the “TEAE: Diarrhoea” value ([1]; 180 mg (N = 6)) was 0 and the “TEAE: Dry Eye” value ([1]; 180 mg (N = 6)) was 0. For the same compound, the “TEAE: Dyspepsia” value ([1]; 180 mg (N = 6)) was 0, the “TEAE: Ear and Labyrinth Disorders” value ([1]; 180 mg (N = 6)) was 0 and the “TEAE: Epistaxis” value ([1]; 180 mg (N = 6)) was 0. For the same compound, the “TEAE: Euphoric Mood” value ([1]; 180 mg (N = 6)) was 0, the “TEAE: Hyperaesthesia” value ([1]; 180 mg (N = 6)) was 0 and the “TEAE: Malaise” value ([1]; 180 mg (N = 6)) was 0. The “TEAE: Pseudoparalysis” value ([1]; 180 mg (N = 6)) was 0, the “TEAE: Psychiatric Disorders” value ([1]; 180 mg (N = 6)) was 0 and the “TEAE: Respiratory, Thoracic and Mediastinal Disorders” value ([1]; 180 mg (N = 6)) was 0. For the same compound, the “TEAE: Rhinorrhoea” value ([1]; 180 mg (N = 6)) was 0, the “TEAE: Skin Discomfort” value ([1]; 180 mg (N = 6)) was 0 and the “TEAE: Skin Irritation” value ([1]; 180 mg (N = 6)) was 0. The “TEAE: Skin and Subcutaneous Tissue Disorders” value ([1]; 180 mg (N = 6)) was 0, the “TEAE: Somnoience” value ([1]; 180 mg (N = 6)) was 0 and the “TEAE: Tinnitus” value ([1]; 180 mg (N = 6)) was 0. For the same compound, the “TEAE: Tremor” value ([1]; 180 mg (N = 6)) was 0, the “Adverse effects incl. hallucinatory effects” value ([1]; single dose 60, 120 or 180 mg) was “Few adverse effects of noribogaine were observed in any of the participants, including no hallucinatory effects” and the Cmax ([2]; Gr 2, 0.5 mg/kg, D1) was 25.3 ng/mL. It also gave a Cmax ([2]; Gr 2, 0.5 mg/kg, D14) of 29.8 ng/mL, a Cmax ([2]; Gr 3, 1.0 mg/kg, D1) of 68.5 ng/mL and a Cmax ([2]; Gr 3, 1.0 mg/kg, D14) of 74.1 ng/mL.
